Measurements as given in US20060089317A1, “Treatment of metastatic breast cancer with anthracyclines, and taxanes” (The University Of Manitoba, priority 2002, published 2006).

System: patients with metastatic breast cancer
Details: DPPE pretreatment
Experimental: In the specific Phase II clinical trial described herein, there was employed 6 mg/kg of DPPE in the form of its hydrochloride salt, administered intravenously as an aqueous solution thereof over 80 minutes, with the last 20 minutes being accompanied by infusion of the chemotherapeutic agents doxorubicin or epirubicin in combination with Taxol or Taxotere followed by the intravenous administration of an aqueous solution at a dose of 2.5 mg/kg of DPPE for 180 minutes accompanied by the infusion of Taxol or for 60 minutes accompanied by the infusion of Taxotere.
In the specific Phase II clinical trial described herein, there was employed 50 mg/M^2 of doxorubicin/epirubicin and either 175 mg/^2 Taxol or 75 mg/M^2 Taxotere administered over the last 20 minutes of infusion of the DPPE solution and over a further 180 minutes for Taxol or 60 minutes for Taxotere, accompanied by infusion of a 2.5 mg/kg of DPPE solution.
29 patients with metastatic breast cancer were treated with a combination of DPPE and epirubicin/Taxol (N=22), DPPE and doxorubicin/Taxol (N=6) or a combination of DPPE and epirubicin/Taxotere (N=1). […]

SMILES: CCN(CC)CCOc1ccc(Cc2ccccc2)cc1 [DPPE, N,N-diethyl-2-[4-(phenylmethyl)-phenoxy]ethanamine]
- TTP in comparison to patients not receiving DPPE treatment: did not improve
- overall survival of patients receiving DPPE (compared with published studies): significantly improved
